For orientation: IC50 means the concentration that inhibits the measured activity by half. Broadly, the Papp is the rate of passage across a membrane or cell layer, normalised by area and donor concentration. A high value points to ready permeation.

The values that follow come from paper PMC5080452 (Bioorganic & Medicinal Chemistry, 2016).

Data set [1] deals with T1, Electrophorus electricus (Ee) AChE (Electrophorus electricus, UniProt O42275).
T1 construct: purchased Sigma-Aldrich
In words: Acetylcholinesterase inhibitory activity (Ellman method). In kind it is biochemical. The conditions noted are these: mean ± SEM, read-out: EeAChE IC50. In general terms: Ellman's reagent forms a yellow product with free thiols.
Protocol: The inhibitory activity against Electrophorus electricus (Ee) AChE (Sigma–Aldrich) was evaluated spectrophotometrically by the method of Ellman et al.[56] […] Inhibition curves were performed in duplicates using at least 10 increasing concentrations of inhibitors and preincubated for 20 min at 37 °C before adding the substrate. One duplicate sample without inhibitor was always present to yield 100% of AChE activity.
Results are expressed as mean ± SEM of at least 4 experiments performed in duplicate.

A short description of the next data set: in vitro. The conditions noted are these: pig, PAMPA.
For data set [2] the following is noted: commercial drugs for PAMPA-BBB assay validation; cited from earlier work.

T1 sequence (O42275 24-633): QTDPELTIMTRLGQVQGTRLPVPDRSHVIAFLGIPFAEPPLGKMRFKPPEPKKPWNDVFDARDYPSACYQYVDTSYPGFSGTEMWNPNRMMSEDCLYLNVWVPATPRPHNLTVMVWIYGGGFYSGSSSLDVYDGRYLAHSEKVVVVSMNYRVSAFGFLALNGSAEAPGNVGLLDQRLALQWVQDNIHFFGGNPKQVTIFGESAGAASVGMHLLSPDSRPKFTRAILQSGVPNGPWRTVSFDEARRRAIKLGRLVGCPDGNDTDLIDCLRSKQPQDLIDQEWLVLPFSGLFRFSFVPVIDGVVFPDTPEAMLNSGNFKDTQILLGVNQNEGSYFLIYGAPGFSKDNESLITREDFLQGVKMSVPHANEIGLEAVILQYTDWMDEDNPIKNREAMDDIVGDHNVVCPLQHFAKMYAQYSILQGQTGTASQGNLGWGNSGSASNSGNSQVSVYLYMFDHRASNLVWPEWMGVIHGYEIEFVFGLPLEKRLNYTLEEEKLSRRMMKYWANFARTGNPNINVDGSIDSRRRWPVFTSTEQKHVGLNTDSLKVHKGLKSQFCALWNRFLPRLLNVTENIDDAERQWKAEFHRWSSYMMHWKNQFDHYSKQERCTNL

As to `NCCCCCCCNc1c2c(nc3ccccc13)CCCC2` [13c], the IC50 in data set [1] was determined as 23.9 ± 2.6 nM. For the same molecule, the Papp in the data set “in vitro” worked out at 7.4 ± 0.1 ×10⁻⁶ cm/s.

As to `N#CCCCCCCCNc1c2c(nc3cc(Cl)ccc13)CCCC2` [12d, 8-[(6-Chloro-1,2,3,4-tetrahydroacridin-9-yl)amino]octanenitrile], the IC50 in data set [1] was 46 ± 6 nM. In “in vitro”, this molecule yielded a Papp of 14.7 ± 0.8 ×10⁻⁶ cm/s.

Take `CC1=CC2Cc3nc4cc(Cl)ccc4c(NCCCCCC#N)c3C(C1)C2` (centres unmarked) [4b]: in data set [1], the IC50 worked out at 31.1 ± 3.1 nM. This molecule had a Papp in the data set “in vitro” of 12.4 ± 0.6 ×10⁻⁶ cm/s.

Take `CC1=CC2Cc3nc4cc(Cl)ccc4c(NCCCCCCCCN)c3C(C1)C2` (centres unmarked) [5d]: the IC50 in data set [1] worked out at 17.3 ± 1.2 nM. Besides, the Papp in the data set “in vitro” was determined as 9.8 ± 0.6 ×10⁻⁶ cm/s.

In the case of `CC1=CC2Cc3nc4cc(Cl)ccc4c(NCCCCC#N)c3C(C1)C2` (centres unmarked) [4a], the IC50 in data set [1] turned out to be 26.9 ± 1.1 nM.

For the molecule `CC1=CC2Cc3nc4cc(Cl)ccc4c(NCCCCCCCCCNC(=N)N)c3C(C1)C2` (centres unmarked) [6e, 1-{9-[(3-Chloro-6,7,10,11-tetrahydro-9-methyl-7,11-methanocycloocta[b]quinolin-12-yl)amino]nonyl}guanidine], the concentration for half-maximal inhibition (IC50) in data set [1] was 10.6 ± 0.8 nM. The molecule also showed a Papp in the data set “in vitro” of 5.4 ± 0.3 ×10⁻⁶ cm/s.

Take `CC1=CC2Cc3nc4cc(Cl)ccc4c(NCCCCCCCCCC#N)c3C(C1)C2` (centres unmarked) [4f]: the IC50 in data set [1] was 9.67 ± 0.89 nM. Moreover, the Papp in “in vitro” is 11.3 ± 1.2 ×10⁻⁶ cm/s.

In the case of `CC1=CC2Cc3nc4cc(Cl)ccc4c(NCCCCCCCN)c3C(C1)C2` (centres unmarked) [5c], the IC50 in data set [1] turned out to be 36 ± 3.5 nM. This molecule also came in with a Papp in “in vitro” of 7.6 ± 0.7 ×10⁻⁶ cm/s.

Turning to `N#CCCCCCCCCNc1c2c(nc3ccccc13)CCCC2` [11e, 9-[(1,2,3,4-Tetrahydroacridin-9-yl)amino]nonanenitrile], the IC50 in data set [1] came out at 44.9 ± 1.6 nM. The Papp in “in vitro” was 7.6 ± 0.35 ×10⁻⁶ cm/s.

As to `CC1=CC2Cc3nc4cc(Cl)ccc4c(NCCCCCCCCCCCN)c3C(C1)C2` (centres unmarked) [5g], the IC50 in data set [1] came out at 35.3 ± 3.9 nM. In “in vitro”, the Papp worked out at 4 ± 0.2 ×10⁻⁶ cm/s.

For the molecule `N#CCCCCCCNc1c2c(nc3ccccc13)CCCC2` [11c, 7-[(1,2,3,4-Tetrahydroacridin-9-yl)amino]heptanenitrile], in data set [1], the IC50 was determined as 53.9 ± 3 nM. In the data set “in vitro”, this molecule displayed a Papp of 11.2 ± 0.2 ×10⁻⁶ cm/s.

Take `N=C(N)NCCCCCCCNc1c2c(nc3ccccc13)CCCC2` [15c, 1-{7-[(1,2,3,4-Tetrahydroacridin-9-yl)amino]heptyl}guanidine]: the IC50 in data set [1] amounted to 23.9 ± 2.6 nM. The Papp in “in vitro” is 5.9 ± 0.3 ×10⁻⁶ cm/s.

For `NCCCCCCCCCNc1c2c(nc3cc(Cl)ccc13)CCCC2` [14e], the IC50 in data set [1] worked out at 14.5 ± 1.6 nM. This molecule also displayed a Papp in “in vitro” of 5.8 ± 0.3 ×10⁻⁶ cm/s.

`N#CCCCCCCCCNc1c2c(nc3cc(Cl)ccc13)CCCC2` [12e, 9-[(6-Chloro-1,2,3,4-tetrahydroacridin-9-yl)amino]nonanenitrile]: in data set [1], the IC50 turned out to be 24.3 ± 4.5 nM. The molecule further yielded a Papp in “in vitro” of 5.4 ± 0.4 ×10⁻⁶ cm/s.

With `CC1=CC2Cc3nc4cc(Cl)ccc4c(NCCCN4CCOCC4)c3C(C1)C2` (racemic) [compound 8, (±)-3-Chloro-6,7,10,11-tetrahydro-9-methyl-12-[(3-morpholinopropyl)amino]-7,11-methanocycloocta[b]quinoline], the half-inhibitory concentration (IC50) in data set [1] is 13.3 ± 0.8 nM. Moreover, the Papp in the data set “in vitro” came out at 15 ± 1 ×10⁻⁶ cm/s.

As to `CN(C)CCCN1c2ccccc2Sc2ccccc21` [Promazine], the “Pe, literature value” in data set [2] was 8.8 10^−6 cm s^−1.

For `N=C(N)NCCCCCCCCCNc1c2c(nc3ccccc13)CCCC2` [15e, 1-{9-[(1,2,3,4-Tetrahydroacridin-9-yl)amino]nonyl}guanidine], the IC50 in data set [1] was 30.5 ± 1.9 nM. Moreover, in the data set “in vitro”, the Papp is 6.5 ± 0.3 ×10⁻⁶ cm/s.

On to `CC1=CC2Cc3nc4cc(Cl)ccc4c(NCCCN4CCCCC4)c3C(C1)C2` (racemic) [compound 7, 3-Chloro-6,7,10,11-tetrahydro-9-methyl-12-[(3-piperidinopropyl)amino]-7,11-methanocycloocta[b]quinoline], for which, in data set [1], the IC50 was 48.4 ± 2.7 nM. The molecule further came in with a Papp in the data set “in vitro” of 5.9 ± 0.4 ×10⁻⁶ cm/s.

In the case of `CC1=CC2Cc3nc4cc(Cl)ccc4c(NCc4ccc(C#N)cc4)c3C(C1)C2` (centres unmarked) [4h], the IC50 in data set [1] was determined as 158 ± 21 nM. This molecule displayed a Papp in “in vitro” of 19.3 ± 1.2 ×10⁻⁶ cm/s.

As to `CC1=CC2Cc3nc4cc(Cl)ccc4c(NCCCCCCCCCN)c3C(C1)C2` (centres unmarked) [5e], in data set [1], the IC50 was found to be 16.4 ± 1.8 nM. The Papp in the data set “in vitro” was 7.1 ± 0.7 ×10⁻⁶ cm/s.

Molecule `CC1=C[C@@H]2Cc3nc4cc(Cl)ccc4c(NCc4ccc(CN)cc4)c3[C@H](C1)C2` [5h] returned a Papp in the data set “in vitro” of 11.7 ± 1.1 ×10⁻⁶ cm/s.

With `N=C(N)NCCCCCCCCCNc1c2c(nc3cc(Cl)ccc13)CCCC2` [16e, 1-{9-[(6-Chloro-1,2,3,4-tetrahydroacridin-9-yl)amino]nonyl}guanidine], the IC50 in data set [1] was 16.4 ± 1.5 nM. In the data set “in vitro”, this molecule had a Papp of 6.7 ± 0.4 ×10⁻⁶ cm/s.

For the molecule `CC1=CC2Cc3nc4cc(Cl)ccc4c(NCCCCCCNC(=N)N)c3C(C1)C2` (centres unmarked) [6b, 1-{6-[(3-Chloro-6,7,10,11-tetrahydro-9-methyl-7,11-methanocycloocta[b]quinolin-12-yl)amino]hexyl}guanidine], in data set [1], the IC50 was 11.8 ± 1.3 nM. In “in vitro”, this molecule had a Papp of 2.9 ± 0.4 ×10⁻⁶ cm/s.

`N#CCCCCCCNc1c2c(nc3cc(Cl)ccc13)CCCC2` [12c, 7-[(6-Chloro-1,2,3,4-tetrahydroacridin-9-yl)amino]heptanenitrile]: in “in vitro”, the apparent permeability coefficient (Papp) is 16.7 ± 0.9 ×10⁻⁶ cm/s.

Turning to `CC1=CC2Cc3nc4cc(Cl)ccc4c(N)c3C(C1)C2` (centres unmarked) [compound 1, huprine Y, reference compound], the IC50 in data set [1] was 0.3 ± 0.01 nM.

Consider `NCCCCCCCCCNc1c2c(nc3ccccc13)CCCC2` [13e], for which the IC50 in data set [1] came out at 15.6 ± 1.5 nM. The Papp in the data set “in vitro” is 6.9 ± 0.5 ×10⁻⁶ cm/s.
